# Experimental data taken from patent publication US12582645B2, “Chemokine CXCR4 receptor modulators and uses related thereto” (Emory University, priority 2017, dated 2026).
# Target: T1, CXCR4 (Homo sapiens, UniProt P61073)
# T1 construct: Human T lymphoblast cells (CCRF-CEM) expressing endogenous CXCR4 receptors; endogenous in cells; host or cells: CCRF-CEM (human T lymphoblast cells)
# Assay: CXCR4-CEM calcium flux assay, antagonist mode (inhibition of SDF-1α-induced calcium flux)
# Assay type: cell-based
# Details: CCRF-CEM cells expressing endogenous CXCR4, stimulated with 4 nM SDF-1α, read-out: CXCR4 Ca^2+ Flux IC50
# Description: CXCR4-CEM Calcium Flux Assays
# Exemplary compounds of the invention were tested for their ability to induce or inhibit calcium flux in CCRF-CEM cells, a human cell line that endogenously expresses CXCR4. Activation of CXCR4 stimulates G protein signaling which, in CCRF-CEM cells, causes a series of downstream events that leads to the release of intracellular calcium stores, or calcium flux. Calcium ion concentrations can be easily measured using a wide variety of […] calcium indicators and, as a result, calcium flux assays are commonly employed methods for measuring G protein-coupled receptor (GPCR) activity. Because the therapeutic potential of CXCR4 antagonists as anti-cancer agents likely relies on their ability to inhibit CXCR4-mediated G protein signaling, this assay was utilized as a first-pass measure of inhibitor potency.
# The cells were then equilibrated to room temperature for 30 minutes before assay. […] For “antagonist mode” assessment, the cells are subsequently incubated for 25 minutes at room temperature. SDF-1α (R&D System Cat #350-NS/CF) was then added at a final concentration of 4 nM to stimulate the cells. Inhibition of SDF-1α-induced calcium flux was monitored by FDSS6000 for 90 seconds.
# After correcting for background, EC50 values were determined. […] Inhibition data for the test compound over a range of concentrations was plotted as percentage inhibition of the test compound as compared to an internal control compound.
# T1 sequence (P61073 whole entry): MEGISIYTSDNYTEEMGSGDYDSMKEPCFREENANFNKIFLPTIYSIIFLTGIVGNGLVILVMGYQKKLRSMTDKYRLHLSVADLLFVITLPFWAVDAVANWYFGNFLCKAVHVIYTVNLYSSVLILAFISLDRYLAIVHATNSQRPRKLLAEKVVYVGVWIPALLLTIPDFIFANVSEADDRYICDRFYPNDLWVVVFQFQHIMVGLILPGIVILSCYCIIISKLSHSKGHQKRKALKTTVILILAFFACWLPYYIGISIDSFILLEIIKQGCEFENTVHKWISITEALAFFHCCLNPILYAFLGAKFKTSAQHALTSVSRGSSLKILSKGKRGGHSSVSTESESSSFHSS
row,IC50,SMILES
1,1000 nM,"CN(CC1CN(Cc2ccccn2)CCN1)[C@H]1CCCc2cccnc21 (single isomer, unassigned) [EMU023 (Stereoisomer 2)]"
2,> 33300 nM,"CN(CC1CN(Cc2ccccn2)CCN1)[C@H]1CCCc2cccnc21 (single isomer, unassigned) [EMU023]"
3,6.42 nM,"NCC1CC1CN(C[C@H]1Cc2ccccc2CN1)[C@H]1CCCc2cccnc21 (single isomer, unassigned) [EMU030 (Stereoisomer 1)]"
4,19.1 nM,"NCC1CC1CN(C[C@H]1Cc2ccccc2CN1)[C@H]1CCCc2cccnc21 (single isomer, unassigned) [EMU030 (Stereoisomer 2)]"
5,6.08 nM,"CN(CC1Cc2c(cccc2N2CCNCC2)CN1)[C@H]1CCCc2cccnc21 (single isomer, unassigned) [EMU034 (Stereoisomer 1)]"
6,314 nM,"CN(CC1Cc2c(cccc2N2CCNCC2)CN1)[C@H]1CCCc2cccnc21 (single isomer, unassigned) [EMU034 (Stereoisomer 2)]"
7,18.1 nM,"CN(CC1Cc2c(cccc2NC2CCNCC2)CN1)[C@H]1CCCc2cccnc21 (single isomer, unassigned) [EMU044 (Stereoisomer 1)]"
8,1700 nM,"CN(CC1Cc2c(cccc2NC2CCNCC2)CN1)[C@H]1CCCc2cccnc21 (single isomer, unassigned) [EMU044 (Stereoisomer 2)]"
9,33.4 nM,"CN(CC1Cc2c(cccc2N2CCC(N)CC2)CN1)[C@H]1CCCc2cccnc21 (single isomer, unassigned) [EMU058]"
10,33.7 nM,"NC1CCC(N(C[C@H]2Cc3ccccc3CN2)[C@H]2CCCc3cccnc32)CC1 (single isomer, unassigned) [EMU073 (Stereoisomer 1)]"
11,61 nM,"C[C@@H]1CN(c2cccc3c2CC(CN(C)[C@H]2CCCc4cccnc42)NC3)C[C@H](C)N1 (single isomer, unassigned) [EMU096 (Stereoisomer 1)]"
12,3840 nM,"C[C@@H]1CN(c2cccc3c2CC(CN(C)[C@H]2CCCc4cccnc42)NC3)C[C@H](C)N1 (single isomer, unassigned) [EMU096 (Stereoisomer 2)]"
13,715 nM,"c1cnc2c(c1)CCC[C@@H]2N(CC1CCCCC1)CC1Cc2c(cccc2N2CCNCC2)CN1 (single isomer, unassigned) [EMU100 (Stereoisomer 1)]"
14,1290 nM,"c1cnc2c(c1)CCC[C@@H]2N(CC1CCCCC1)CC1Cc2c(cccc2N2CCNCC2)CN1 (single isomer, unassigned) [EMU100 (Stereoisomer 2)]"
15,25.6 nM,"NC/C=C\CN(CC1Cc2ncccc2CN1)[C@H]1CCCc2cccnc21 (single isomer, unassigned) [EMU142 (Stereoisomer 1)]"
16,503 nM,"NC/C=C\CN(CC1Cc2ncccc2CN1)[C@H]1CCCc2cccnc21 (single isomer, unassigned) [EMU142 (Stereoisomer 2)]"
17,> 33300 nM,"CN(CC1Cc2ncccc2CN1)[C@H]1CCCc2cccnc21 (single isomer, unassigned) [EMU174 (Stereoisomer 1)]"
18,476 nM,"CN(CC1Cc2ncccc2CN1)[C@H]1CCCc2cccnc21 (single isomer, unassigned) [EMU174 (Stereoisomer 2)]"
19,146 nM,"NC/C=C/CN(CC1Cc2ncccc2CN1)[C@H]1CCCc2cccnc21 (single isomer, unassigned) [EMU192 (Stereoisomer 1)]"
20,17000 nM,"NCc1ccc(CN(CC2Cc3ncccc3CN2)[C@H]2CCCc3cccnc32)cc1 (single isomer, unassigned) [EMU193]"
21,111 nM,"NCc1ccc(CN(CC2Cc3ncccc3CN2)[C@H]2CCCc3cccnc32)cc1 (single isomer, unassigned) [EMU194]"
22,463 nM,"NC(=O)NC/C=C\CN(CC1Cc2ncccc2CN1)[C@H]1CCCc2cccnc21 (single isomer, unassigned) [EMU209 (Stereoisomer 1)]"
23,430 nM,"NC(=O)NC/C=C/CN(CC1Cc2ncccc2CN1)[C@H]1CCCc2cccnc21 (single isomer, unassigned) [EMU212 (Stereoisomer 1)]"
24,10.3 nM,CN(C[C@H]1Cc2c(cccc2N2CC3CNCC3C2)CN1)C1CCCc2cccnc21 (stereo partly drawn) [EMU062]
